Organism: Rattus norvegicus
Experiment: Open TG-GATES - Regimen: Single
Format: toxicity, organism-based, Sprague-Dawley
Design: regimen Single, gender Male, age 6 weeks
Conditions: in vivo, po, 0 mg/kg, route gavage, dose level Control; for APTT / Bas / Eos / Fbg / Hb / Ht / Lym / MCH / MCHC / MCV / Mono / Neu / PT / Plat / RBC / Ret / WBC: tissue Blood; for KIDNEY_L / KIDNEY_R / KIDNEY_TOTAL: tissue Kidney; for LIVER: tissue Liver; for A/G / ALP / ALT / AST / BUN / CRE / Ca / Cl / DBIL / GLC / IP / K / LDH / Na / PL / RALB / TBIL / TC / TG / TP / gamma-GTP: tissue Plasma

`CC1=C(/C=C/C(C)=C/C=C/C(C)=C/CO)C(C)(C)CCC1` [RETINOL] gave a TERMINAL_BW (3 h) of 195.7 g, an APTT (3 h) of 22 s and a Bas (3 h) of 0%. It also gave an Eos (3 h) of 0.8%, a Fbg (3 h) of 294.8 mg/dL and a Hb (3 h) of 13.3 g/dL. It also gave a Ht (3 h) of 38.7%, a Lym (3 h) of 79.4% and an MCH (3 h) of 21.4 pg. For the same compound, the MCHC (3 h) was 34.5%, the MCV (3 h) was 62.2 fL and the Mono (3 h) was 2%. It also gave a Neu (3 h) of 16.8%, a PT (3 h) of 15.8 s and a Plat (3 h) of 108.5 x10_4/uL. It also gave an RBC (3 h) of 621.4 x10_4/ul, a Ret (3 h) of 8.9% and a WBC (3 h) of 97.5 x10_2/uL. The KIDNEY_L (3 h) was 0.9 g, the KIDNEY_R (3 h) was 0.9 g and the KIDNEY_TOTAL (3 h) was 1.8 g. The LIVER (3 h) was 9 g, the A/G (3 h) was 1.3 and the ALP (3 h) was 1760.6 IU/L. For the same compound, the ALT (3 h) was 48 IU/L, the AST (3 h) was 83.6 IU/L and the BUN (3 h) was 12.8 mg/dL. For the same compound, the CRE (3 h) was 0.2 mg/dL, the Ca (3 h) was 10.6 mg/dL and the Cl (3 h) was 107.6 meq/L. It also gave a DBIL (3 h) of 0 mg/dL, a GLC (3 h) of 181 mg/dL and an IP (3 h) of 8.4 mg/dL. For the same compound, the K (3 h) was 3.8 meq/L, the LDH (3 h) was 265.2 IU/L and the Na (3 h) was 142.2 meq/L. The PL (3 h) was 148.6 mg/dL, the RALB (3 h) was 3.2 g/dL and the TBIL (3 h) was 0.012 mg/dL. It also gave a TC (3 h) of 77 mg/dL, a TG (3 h) of 58.6 mg/dL and a TP (3 h) of 5.6 g/dL. The gamma-GTP (3 h) was 2.8 IU/L, the TERMINAL_BW (6 h) was 199.1 g and the APTT (6 h) was 21.6 s. The Bas (6 h) was 0%, the Eos (6 h) was 0.6% and the Fbg (6 h) was 309.6 mg/dL. For the same compound, the Hb (6 h) was 13.5 g/dL, the Ht (6 h) was 38.8% and the Lym (6 h) was 77%. The MCH (6 h) was 21.6 pg, the MCHC (6 h) was 34.9% and the MCV (6 h) was 61.8 fL. For the same compound, the Mono (6 h) was 3%, the Neu (6 h) was 18.8% and the PT (6 h) was 15.7 s. The Plat (6 h) was 114.9 x10_4/uL, the RBC (6 h) was 628.2 x10_4/ul and the Ret (6 h) was 8.5%. For the same compound, the WBC (6 h) was 113.2 x10_2/uL, the KIDNEY_L (6 h) was 1 g and the KIDNEY_R (6 h) was 1 g. It also gave a KIDNEY_TOTAL (6 h) of 1.9 g, an LIVER (6 h) of 9.2 g and an A/G (6 h) of 1.3. It also gave an ALP (6 h) of 1700 IU/L, an ALT (6 h) of 36.8 IU/L and an AST (6 h) of 67.8 IU/L. The BUN (6 h) was 10.6 mg/dL, the CRE (6 h) was 0.1 mg/dL and the Ca (6 h) was 10.9 mg/dL. The Cl (6 h) was 106.4 meq/L, the DBIL (6 h) was 0.014 mg/dL and the GLC (6 h) was 181.4 mg/dL. The IP (6 h) was 9.9 mg/dL, the K (6 h) was 4.5 meq/L and the LDH (6 h) was 223.6 IU/L. It also gave a Na (6 h) of 142 meq/L, a PL (6 h) of 152 mg/dL and an RALB (6 h) of 3.2 g/dL. For the same compound, the TBIL (6 h) was 0.022 mg/dL, the TC (6 h) was 80.6 mg/dL and the TG (6 h) was 79.6 mg/dL. It also gave a TP (6 h) of 5.5 g/dL, a gamma-GTP (6 h) of 1.2 IU/L and a TERMINAL_BW (9 h) of 198.5 g. It also gave an APTT (9 h) of 21.2 s, a Bas (9 h) of 0% and an Eos (9 h) of 0.6%. The Fbg (9 h) was 303.2 mg/dL, the Hb (9 h) was 13.1 g/dL and the Ht (9 h) was 38.3%. It also gave a Lym (9 h) of 81.4%, an MCH (9 h) of 21.6 pg and an MCHC (9 h) of 34.3%. The MCV (9 h) was 63 fL, the Mono (9 h) was 2.6% and the Neu (9 h) was 15%. The PT (9 h) was 15.8 s, the Plat (9 h) was 122.4 x10_4/uL and the RBC (9 h) was 608.2 x10_4/ul. For the same compound, the Ret (9 h) was 7.9%, the WBC (9 h) was 88.4 x10_2/uL and the KIDNEY_L (9 h) was 0.9 g. The KIDNEY_R (9 h) was 0.9 g, the KIDNEY_TOTAL (9 h) was 1.9 g and the LIVER (9 h) was 8.3 g. It also gave an A/G (9 h) of 1.2, an ALP (9 h) of 1691.8 IU/L and an ALT (9 h) of 33.8 IU/L. It also gave an AST (9 h) of 72.2 IU/L, a BUN (9 h) of 10 mg/dL and a CRE (9 h) of 0.1 mg/dL. The Ca (9 h) was 10.8 mg/dL, the Cl (9 h) was 107.8 meq/L and the DBIL (9 h) was 0 mg/dL. For the same compound, the GLC (9 h) was 183 mg/dL, the IP (9 h) was 10.8 mg/dL and the K (9 h) was 4.4 meq/L. For the same compound, the LDH (9 h) was 302 IU/L, the Na (9 h) was 142 meq/L and the PL (9 h) was 131.2 mg/dL. It also gave an RALB (9 h) of 2.9 g/dL, a TBIL (9 h) of 0.018 mg/dL and a TC (9 h) of 73.4 mg/dL. It also gave a TG (9 h) of 52.2 mg/dL, a TP (9 h) of 5.4 g/dL and a gamma-GTP (9 h) of 4.4 IU/L. The TERMINAL_BW (24 h) was 205.1 g, the APTT (24 h) was 20.8 s and the Bas (24 h) was 0%. It also gave an Eos (24 h) of 0.8%, a Fbg (24 h) of 294 mg/dL and a Hb (24 h) of 13.1 g/dL. It also gave a Ht (24 h) of 37.7%, a Lym (24 h) of 79.4% and an MCH (24 h) of 21.9 pg. It also gave an MCHC (24 h) of 34.8%, an MCV (24 h) of 63.2 fL and a Mono (24 h) of 2.6%. It also gave a Neu (24 h) of 16.6%, a PT (24 h) of 16.1 s and a Plat (24 h) of 119.1 x10_4/uL. It also gave an RBC (24 h) of 598.2 x10_4/ul, a Ret (24 h) of 7.8% and a WBC (24 h) of 85.8 x10_2/uL. For the same compound, the KIDNEY_L (24 h) was 0.9 g, the KIDNEY_R (24 h) was 0.9 g and the KIDNEY_TOTAL (24 h) was 1.9 g. It also gave an LIVER (24 h) of 9.7 g, an A/G (24 h) of 1.3 and an ALP (24 h) of 1692.4 IU/L. It also gave an ALT (24 h) of 41.8 IU/L, an AST (24 h) of 71.8 IU/L and a BUN (24 h) of 17.6 mg/dL. The CRE (24 h) was 0.2 mg/dL, the Ca (24 h) was 10.7 mg/dL and the Cl (24 h) was 105.6 meq/L. For the same compound, the DBIL (24 h) was 0.006 mg/dL, the GLC (24 h) was 181.6 mg/dL and the IP (24 h) was 6.4 mg/dL. The K (24 h) was 4.3 meq/L, the LDH (24 h) was 245.8 IU/L and the Na (24 h) was 141.2 meq/L. The PL (24 h) was 154.2 mg/dL, the RALB (24 h) was 3.1 g/dL and the TBIL (24 h) was 0.016 mg/dL. It also gave a TC (24 h) of 79.6 mg/dL, a TG (24 h) of 79.2 mg/dL and a TP (24 h) of 5.5 g/dL. The gamma-GTP (24 h) was 1.2 IU/L.

— ChEMBL document CHEMBL3885861, “Open TG-GATES”
